Assay results as given in ChEMBL document CHEMBL1154508, “Discovery of GSK345931A: An EP(1) receptor antagonist with efficacy in preclinical models of inflammatory pain” (Bioorg Med Chem Lett, 2009).

Columns and labels:
[1] = target: T1, Prostaglandin E2 receptor EP3 subtype (Homo sapiens, UniProt P43115); test: Activity at EP3 receptor by FLIPR method
T1 sequence (P43115 whole entry): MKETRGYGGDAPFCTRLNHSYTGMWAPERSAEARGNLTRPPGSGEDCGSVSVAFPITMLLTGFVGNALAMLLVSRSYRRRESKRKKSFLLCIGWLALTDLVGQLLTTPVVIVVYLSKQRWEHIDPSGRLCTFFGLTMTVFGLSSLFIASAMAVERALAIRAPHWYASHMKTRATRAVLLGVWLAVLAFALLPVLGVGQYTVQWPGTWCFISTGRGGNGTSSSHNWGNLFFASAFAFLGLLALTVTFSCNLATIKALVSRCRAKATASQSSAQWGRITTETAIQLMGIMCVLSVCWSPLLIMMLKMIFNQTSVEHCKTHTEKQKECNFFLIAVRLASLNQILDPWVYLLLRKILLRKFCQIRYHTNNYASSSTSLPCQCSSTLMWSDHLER

[2] = Lipophilicity, log D at pH 7.4; format: physicochemical; details: buffer
[3] = Drug level in blood of sub-chronic rat joint pain efficacy model satellite animal group at 5 mg/kg bid measured on day 5 after 1 hr post dose; format: ADME, organism-based; design: dose 5 mg/kg; details: read-out: Drug uptake
[4] = Ratio of drug level in brain to blood of sub-chronic rat joint pain efficacy model treatment group at 5 mg/kg bid measured on day 5 after 1 hr post dose; format: ADME, organism-based; design: dose 5 mg/kg
[5] = Drug level in brain of complete Freund's adjuvant-induced rat inflammatory pain model at 10 mg/kg, po after 1 hr; format: ADME, organism-based; design: dose 10 mg/kg, route oral; details: read-out: Drug uptake
[6] = Drug level in brain of complete Freund's adjuvant-induced rat inflammatory pain model at 2 mg/kg, po after 1 hr; format: ADME, organism-based; design: dose 2 mg/kg, route oral; details: read-out: Drug uptake
[7] = target: T2, Peroxisome proliferator-activated receptor gamma (Homo sapiens, UniProt P37231); test: Binding affinity to PPARgamma
T2 sequence (P37231 whole entry): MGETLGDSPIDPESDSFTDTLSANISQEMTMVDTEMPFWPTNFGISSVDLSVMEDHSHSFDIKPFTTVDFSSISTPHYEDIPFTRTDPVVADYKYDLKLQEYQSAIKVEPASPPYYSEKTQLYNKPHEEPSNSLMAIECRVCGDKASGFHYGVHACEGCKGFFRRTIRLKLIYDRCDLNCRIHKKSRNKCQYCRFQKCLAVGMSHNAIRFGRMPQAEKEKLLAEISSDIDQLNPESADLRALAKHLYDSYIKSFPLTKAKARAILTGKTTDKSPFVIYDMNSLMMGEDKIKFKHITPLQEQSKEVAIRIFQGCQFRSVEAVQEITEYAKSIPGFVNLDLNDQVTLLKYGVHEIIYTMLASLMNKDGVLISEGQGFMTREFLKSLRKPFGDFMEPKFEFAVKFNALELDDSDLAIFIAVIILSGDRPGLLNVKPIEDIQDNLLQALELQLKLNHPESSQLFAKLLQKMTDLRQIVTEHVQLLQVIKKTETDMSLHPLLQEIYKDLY

[8] = Fraction unbound in rat brain
[9] = Solubility in fasted state simulated intestinal fluid after 2 hrs; format: physicochemical
[10] = Drug level in blood of sub-chronic rat joint pain efficacy model satellite animal group at 20 mg/kg bid measured on day 5 after 1 hr post dose; format: ADME, organism-based; design: dose 20 mg/kg; details: read-out: Drug uptake
[11] = target: T3, Peroxisome proliferator-activated receptor delta (Homo sapiens, UniProt Q03181); test: Activity at PPARdelta
T3 sequence (Q03181 whole entry): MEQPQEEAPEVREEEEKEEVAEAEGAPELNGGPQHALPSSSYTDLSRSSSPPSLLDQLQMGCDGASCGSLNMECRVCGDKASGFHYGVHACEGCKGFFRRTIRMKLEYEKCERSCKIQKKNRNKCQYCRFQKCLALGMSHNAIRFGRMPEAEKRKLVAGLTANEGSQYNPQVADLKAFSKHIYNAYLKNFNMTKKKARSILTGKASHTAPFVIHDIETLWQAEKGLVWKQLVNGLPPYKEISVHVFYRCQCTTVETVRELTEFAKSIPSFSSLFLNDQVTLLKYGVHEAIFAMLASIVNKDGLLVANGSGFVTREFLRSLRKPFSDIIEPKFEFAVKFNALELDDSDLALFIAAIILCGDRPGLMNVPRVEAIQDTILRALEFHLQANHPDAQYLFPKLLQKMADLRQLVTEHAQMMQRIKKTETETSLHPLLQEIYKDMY

Blood = test: Fraction unbound in rat blood; format: ADME, tissue-based
[12] = target: T4, Peroxisome proliferator-activated receptor alpha (Homo sapiens, UniProt Q07869); test: Activity at PPARalpha
T4 sequence (Q07869 whole entry): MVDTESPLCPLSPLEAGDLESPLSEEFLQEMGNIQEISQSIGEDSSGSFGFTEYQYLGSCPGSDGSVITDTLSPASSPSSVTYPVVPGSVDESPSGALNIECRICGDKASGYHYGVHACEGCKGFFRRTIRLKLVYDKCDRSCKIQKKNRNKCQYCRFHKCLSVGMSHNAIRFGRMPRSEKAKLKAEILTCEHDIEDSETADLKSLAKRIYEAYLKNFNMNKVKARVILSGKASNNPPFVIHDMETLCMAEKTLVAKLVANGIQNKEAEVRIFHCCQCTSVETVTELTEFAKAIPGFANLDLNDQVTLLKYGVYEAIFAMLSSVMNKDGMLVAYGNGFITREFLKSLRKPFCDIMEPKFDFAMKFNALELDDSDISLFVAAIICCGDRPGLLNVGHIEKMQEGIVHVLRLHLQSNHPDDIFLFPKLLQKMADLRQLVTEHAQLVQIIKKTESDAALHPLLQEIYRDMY

[13] = Ratio of drug level in brain to blood in complete Freund's adjuvant-induced rat inflammatory pain model at 2 mg/kg, po after 1 hr; format: ADME, organism-based; design: dose 2 mg/kg, route oral
[14] = Drug level in brain of complete Freund's adjuvant-induced rat inflammatory pain model at 3 mg/kg, po after 1 hr; format: ADME, organism-based; design: dose 3 mg/kg, route oral; details: read-out: Drug uptake
Thromboxane A2 receptor = target: T5, Thromboxane A2 receptor (Homo sapiens, UniProt P21731); test: Binding affinity to TP receptor
T5 sequence (P21731 whole entry): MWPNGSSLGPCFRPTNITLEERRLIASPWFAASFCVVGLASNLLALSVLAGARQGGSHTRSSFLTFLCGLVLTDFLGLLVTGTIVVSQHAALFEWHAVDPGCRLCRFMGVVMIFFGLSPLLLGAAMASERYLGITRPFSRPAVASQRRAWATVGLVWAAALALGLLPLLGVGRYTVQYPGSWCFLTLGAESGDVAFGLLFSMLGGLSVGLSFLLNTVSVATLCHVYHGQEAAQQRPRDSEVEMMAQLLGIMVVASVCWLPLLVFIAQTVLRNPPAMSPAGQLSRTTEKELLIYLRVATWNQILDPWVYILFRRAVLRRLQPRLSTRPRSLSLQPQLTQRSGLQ

[15] = Ratio of drug level in brain to blood of sub-chronic rat joint pain efficacy model satellite animal group at 20 mg/kg bid measured on day 5; format: ADME, organism-based; design: dose 20 mg/kg
[16] = Steady state blood clearance in rat at 0.28 mg/kg/hr, iv for 18 hrs; format: ADME, organism-based; design: route intravenous
[17] = Solubility in fed state simulated intestinal fluid after 24 hrs; format: physicochemical
Liver microsomes = test: Metabolic stability assessed as intrinsic clearance per gram of rat liver microsomes; format: ADME, Microsome

Ki [1]: 2 µM
logD [2]: 1.9
concentration at 1 h [3]: 1660 nM
Kp at 1 h [4]: 0.57
concentration at 1 h [5]: 7260 nM
concentration at 1 h [6]: 645 nM
Ki [7]: 12.6 µM
Fu [8]: 0.53%
solubility at 2 h [9]: 1030 µg/mL
concentration at 1 h [10]: 6770 nM
EC50 [11]: > 10 µM
Fu (Blood): 0.5%
EC50 [12]: > 10 µM
Kp at 1 h [13]: 0.22
concentration at 1 h [14]: 1480 nM
Ki (Thromboxane A2 receptor): 0.316 µM
Kp at 5 day [15]: 0.5
clearance [16]: 8 mL/min/kg
solubility at 24 h [17]: 1140 µg/mL
CL (Liver microsomes): 0.7 mL/min/g
Compound: CC(C)COc1ccc(Cl)cc1-c1ccccc1-c1cccc(C(=O)[O-])n1.[Na+]
